Experimental data as given in ChEMBL document CHEMBL3045410, “Synthesis and in vitro antitumor activity of 1-(3-dimethylamino)propyl indolin-2-one derivatives” (Med Chem Res, 2013).

Experiments:
A549 [1] = assay: Cytotoxicity against Homo sapiens (human) A549 cells assessed as growth inhibition by MTT assay; assay type: functional, cell-based
MDA-MB-231 [2] = assay: Cytotoxicity against Homo sapiens (human) MDA-MB-231 cells assessed as growth inhibition by MTT assay; assay type: functional, cell-based
HUVEC [3] = assay: Cytotoxicity against VEGF-stimulated HUVECs assessed as growth inhibition by MTT assay; assay type: functional, cell-based; settings: Homo sapiens
HUVEC [4] = assay: Cytotoxicity against recombinant Homo sapiens (human) basic FGF-stimulated HUVECs assessed as growth inhibition by MTT assay; assay type: functional, cell-based
HUVEC [5] = assay: Cytotoxicity against HUVECs assessed as growth inhibition by MTT assay; assay type: cell-based; settings: Homo sapiens
IM-9 = assay: Cytotoxicity against Homo sapiens (human) IM9 cells assessed as growth inhibition by MTT assay; assay type: functional, cell-based
K562 [6] = assay: Cytotoxicity against Homo sapiens (human) K562 cells assessed as growth inhibition by MTT assay; assay type: functional, cell-based
HL-60 [7] = assay: Cytotoxicity against Homo sapiens (human) HL60 cells assessed as growth inhibition by MTT assay; assay type: functional, cell-based
A549 [8] = assay: Ratio of LK-B030 IC50 to compound IC50 for Homo sapiens (human) A549 cells; assay type: functional
MDA-MB-231 [9] = assay: Ratio of LK-B030 IC50 to compound IC50 for Homo sapiens (human) MDA-MB-231 cells; assay type: functional
K562 [10] = assay: Ratio of sunitinib IC50 to compound IC50 for Homo sapiens (human) K562 cells; assay type: functional
HL-60 [11] = assay: Ratio of sunitinib IC50 to compound IC50 for Homo sapiens (human) HL60 cells; assay type: functional
A549 [12] = assay: Ratio of sunitinib IC50 to compound IC50 for Homo sapiens (human) A549 cells; assay type: functional
MDA-MB-231 [13] = assay: Ratio of sunitinib IC50 to compound IC50 for Homo sapiens (human) MDA-MB-231 cells; assay type: functional

| Compound | IC50 (A549 [1]) | IC50 (MDA-MB-231 [2]) | IC50 (HUVEC [3]) | IC50 (HUVEC [4]) | IC50 (HUVEC [5]) | IC50 (IM-9) | IC50 (K562 [6]) | IC50 (HL-60 [7]) | Ratio IC50 (A549 [8]) | Ratio IC50 (MDA-MB-231 [9]) | Ratio IC50 (K562 [10]) | Ratio IC50 (HL-60 [11]) | Ratio IC50 (A549 [12]) | Ratio IC50 (MDA-MB-231 [13]) |
| --- | --- | --- | --- | --- | --- | --- | --- | --- | --- | --- | --- | --- | --- | --- |
| Cc1[nH]c(/C=C2\C(=O)N(CCCN(C)C)c3ccc(F)cc32)c(C)c1C(=O)N1CCOCC1 | 21.7 µM | 14.7 µM | 9.11 µM | 22 µM | 29.4 µM | 61.5 µM | 57 µM | 13.2 µM | – | – | – | – | – | – |
| CCOC(=O)c1c(C)[nH]c(/C=C2\C(=O)N(CCCN(C)C)c3ccc(Cl)cc32)c1C.Cl | 1.1 µM | 1.47 µM | 9.66 µM | 10.2 µM | 22 µM | 2.95 µM | 1.36 µM | 1.17 µM | 1.6 | 1.6 | 1.8 | 1.8 | 1.8 | 1.8 |
| CC/C(=C1/C(=O)N(CCCN(C)C)c2ccc(F)cc21)c1ccc[nH]1 | 16.9 µM | 10.6 µM | 9.57 µM | 9.75 µM | 22.2 µM | 11 µM | 8.82 µM | 10.3 µM | – | – | – | – | – | – |
| CN(C)CCCN1C(=O)C(=C(c2ccccc2)c2ccccc2)c2cc(F)ccc21 | 13.4 µM | 6.61 µM | 8.42 µM | 10.9 µM | 32.8 µM | 9.38 µM | 6.85 µM | 10.1 µM | – | – | – | – | – | – |
| Cc1[nH]c(/C=C2\C(=O)N(CCCN(C)C)c3ccc(Cl)cc32)c(C)c1C(=O)N1CCOCC1 | 8.6 µM | 9.69 µM | 4.21 µM | 10.7 µM | 14.2 µM | 7.65 µM | 5.46 µM | 4.64 µM | – | – | – | – | – | – |
| CCN(CC)CCNC(=O)c1c(C)[nH]c(/C=C2\C(=O)Nc3ccc(F)cc32)c1C [SUNITINIB] | – | – | – | – | 3.9 µM | – | – | – | – | – | – | – | – | – |
| CCN(CC)CCNC(=O)c1c(C)[nH]c(/C=C2\C(=O)N(CCCN(C)C)c3ccc(Cl)cc32)c1C | – | – | – | – | 5.57 µM | – | – | – | – | – | – | – | – | – |
| CCOC(=O)c1c(C)[nH]c(/C=C2\C(=O)N(CCCN(C)C)c3ccc(F)cc32)c1C | 1.55 µM | 3.86 µM | 10.1 µM | 1.81 µM | 8.56 µM | 3.21 µM | 1.54 µM | 1.36 µM | – | – | – | – | – | – |
| C/C(=C1/C(=O)N(CCCN(C)C)c2ccc(F)cc21)c1ccc[nH]1 | 8.27 µM | 5.92 µM | 9.71 µM | 8.83 µM | 13.9 µM | 6.68 µM | 6.41 µM | 7.99 µM | – | – | – | – | – | – |
| CN(C)CCCN1C(=O)/C(=C(/c2ccccc2)c2ccc[nH]2)c2cc(F)ccc21 | 11.4 µM | 6.92 µM | 9.52 µM | 8.83 µM | 42.8 µM | 5.64 µM | 6.43 µM | 7.16 µM | – | – | – | – | – | – |
